# Results as given in paper PMC7413254 (Nature Communications, 2020).
# Read-outs that look alike come from different tables or passages of the source.
# Key:
# PfCRT^Dd2 [1] = molecular target: T1, PfCRT^Dd2 (Plasmodium falciparum, UniProt Q9N623, A220S/I356T/K76T/M74I/N326S/N75E/Q271E/R371I); assay: [3H]CQ uptake into Xenopus oocytes, cis-inhibition by unlabelled solute; assay type: cell-based
# Summary of the method: (§1)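 Using pH 5.5 ND96 at 27.5 °C, uptake is followed for 1.5 h, stopped with ice-cold buffer, and quantified as accumulated radioactivity per oocyte after SDS lysis.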
# PfCRT^Ecu1110 [2] = molecular target: T2, PfCRT^Ecu1110 (Plasmodium falciparum, UniProt Q9N623, A220S/I356L/K76T/N326D); assay: as above; assay type: cell-based
# T2 sequence (Q9N623 whole entry A220S/I356L/K76T/N326D): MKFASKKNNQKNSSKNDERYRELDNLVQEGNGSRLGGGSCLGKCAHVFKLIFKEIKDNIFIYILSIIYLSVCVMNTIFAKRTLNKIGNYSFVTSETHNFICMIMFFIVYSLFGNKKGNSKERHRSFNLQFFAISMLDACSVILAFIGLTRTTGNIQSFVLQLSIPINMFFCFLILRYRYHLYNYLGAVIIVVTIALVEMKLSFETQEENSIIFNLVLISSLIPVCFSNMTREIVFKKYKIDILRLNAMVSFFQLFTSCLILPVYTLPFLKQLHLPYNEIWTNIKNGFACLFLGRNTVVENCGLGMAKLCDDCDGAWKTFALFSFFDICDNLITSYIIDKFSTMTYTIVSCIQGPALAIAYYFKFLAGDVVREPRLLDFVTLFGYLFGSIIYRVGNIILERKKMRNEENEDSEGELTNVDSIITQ
# Summary of the method: as §1
# PfCRT^3D7 [3] = molecular target: T3, PfCRT^3D7 (Plasmodium falciparum, UniProt Q8IBZ9); assay: cell-based; assay type: cell-based
# T3 sequence (Q8IBZ9 59-398): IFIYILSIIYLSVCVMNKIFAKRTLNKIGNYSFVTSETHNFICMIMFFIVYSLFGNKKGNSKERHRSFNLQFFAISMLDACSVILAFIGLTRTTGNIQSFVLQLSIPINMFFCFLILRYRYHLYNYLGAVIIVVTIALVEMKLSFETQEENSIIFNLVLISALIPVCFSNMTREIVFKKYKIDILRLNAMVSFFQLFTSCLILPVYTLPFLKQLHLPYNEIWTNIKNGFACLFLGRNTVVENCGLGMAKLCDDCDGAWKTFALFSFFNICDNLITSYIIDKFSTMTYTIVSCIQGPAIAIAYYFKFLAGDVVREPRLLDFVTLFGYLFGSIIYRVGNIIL
# Summary of the method: (§2)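 Oocytes (ten per treatment, ≥4 independent frogs/days) were preloaded by injecting VF-6 in 25 nL ND96 at pH 5.0, 5.5, 6.0 or 7.0, or Na^+-free choline buffer, then uptake run 1.5 h, 27.5 °C, ND96 pH 5.5 by default. Internal concentrations assumed ~400 nL oocyte volume.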
# PfNT1 = molecular target: T4, PfNT1 (Plasmodium falciparum, UniProt Q8IDM6); assay: cell-based; assay type: cell-based; details: for activity at 5000 µM: total [3H]CQ transport
# T4 construct: expressed in transfected cells; host or cells: Xenopus laevis oocytes (stage V-VI), cRNA-injected
# T4 sequence (Q8IDM6 whole entry): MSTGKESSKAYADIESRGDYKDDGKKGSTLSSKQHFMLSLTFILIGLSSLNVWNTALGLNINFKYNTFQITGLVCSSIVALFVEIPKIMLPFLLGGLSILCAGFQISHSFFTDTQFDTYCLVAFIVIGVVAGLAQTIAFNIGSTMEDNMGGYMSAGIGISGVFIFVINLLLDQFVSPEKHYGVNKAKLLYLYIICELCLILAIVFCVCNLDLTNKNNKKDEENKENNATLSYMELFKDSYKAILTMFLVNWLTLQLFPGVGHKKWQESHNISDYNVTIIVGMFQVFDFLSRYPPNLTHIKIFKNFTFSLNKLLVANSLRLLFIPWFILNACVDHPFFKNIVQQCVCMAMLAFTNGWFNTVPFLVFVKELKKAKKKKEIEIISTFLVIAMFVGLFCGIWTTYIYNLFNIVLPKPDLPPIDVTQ
# Summary of the method: as §2
# PfCRT^Dd2 [4] = molecular target: T1, PfCRT^Dd2; assay: cell-based; assay type: cell-based; details: […]; for activity at 45000 µM: [test solute]i = 45 mM (30 mM for some solutes due to solubility)
# Summary of the method: as §2
# PfCRT^Ecu1110 [5] = molecular target: T2, PfCRT^Ecu1110; assay: cell-based; assay type: cell-based; details: […]
# Summary of the method: as §2
# PfCRT^3D7 [6] = molecular target: T3, PfCRT^3D7; assay: cell-based; assay type: cell-based; details: total [3H]CQ transport; for inhibition at 500 µM: [test solute] = 0.5 mM; for inhibition at 1000 µM: [test solute] = 1 mM; for inhibition at 2000 µM: [test solute] = 2 mM
# Summary of the method: as §1
# non-expressing oocytes [7] = assay type: cell-based, Xenopus laevis; details: total [3H]CQ transport; for Uptake of [3H]CQ (% non-expressing oocyte control), trans-stimulation: non-expressing oocytes, normalised to the oocyte type control; for Uptake of [3H]CQ (% PfCRTDd2 control), trans-stimulation, non-expressing oocytes: mean ± SEM, SEM
# Summary of the method: as §2
# non-expressing oocytes [8] = assay: cells; assay type: cell-based, Xenopus laevis; details: Xenopus laevis, total [3H]CQ transport; for inhibition at 500 µM: [test solute] = 0.5 mM; for inhibition at 1000 µM: [test solute] = 1 mM; for inhibition at 2000 µM: [test solute] = 2 mM
# Summary of the method: as §1
# PfCRT [9] = assay: Potential co-substrates tested for influx of VF-6 via PfCRT into the oocyte; assay type: cell-based, Plasmodium falciparum; design: key: X: Compounds that have been tested as potential co-substrates but are not required for influx of VF-6 via PfCRT into the oocyte
# PfCRT [10] = assay: Test of solutes as potential co-substrates for influx of VF-6 via PfCRT into the oocyte; assay type: cell-based, Plasmodium falciparum; design: key: X: Compounds that have been tested as potential co-substrates but are not required for influx of VF-6 via PfCRT into the oocyte; details: X = tested
# [11] = read-out: PfCRT-mediated [3H]CQ transport, cis-inhibition (% PfCRTDd2 control)
# [12] = read-out: Uptake of [3H]CQ (% PfCRTDd2 control), cis-inhibition
# [13] = read-out: Uptake of [3H]CQ (% PfCRTDd2 control), cis-inhibition, PfCRTDd2, SEM
# [14] = read-out: [3H]CQ transport (% PfCRTDd2 control), cis-inhibition, PfCRTDd2, SEM
# [15] = read-out: PfCRT-mediated [3H]CQ transport, cis-inhibition (% PfCRTEcu1110 control)
# [16] = read-out: Uptake of [3H]CQ (% PfCRTDd2 control), cis-inhibition, PfCRTEcu1110, SEM
# [17] = read-out: Uptake of [3H]CQ (% PfCRTEcu1110 control), cis-inhibition
# [18] = read-out: [3H]CQ transport (% PfCRTEcu1110 control), cis-inhibition, PfCRTEcu1110, SEM
# [19] = PfCRT3D7 oocytes, normalised to the oocyte type control, read-out: Uptake of [3H]CQ (% PfCRT3D7 control), cis-inhibition
# [20] = mean ± SEM, SEM, read-out: Uptake of [3H]CQ (% PfCRTDd2 control), cis-inhibition, PfCRT3D7
# [21] = Oocyte, mean ± SEM, SEM, read-out: Uptake of [3H]CQ (% PfCRTDd2 control), cis-inhibition, non-expressing oocytes
# [22] = non-expressing oocytes, normalised to the oocyte type control, read-out: Uptake of [3H]CQ (% non-expressing oocyte control), cis-inhibition
# T1 sequence (Q9N623 whole entry A220S/I356T/K76T/M74I/N326S/N75E/Q271E/R371I): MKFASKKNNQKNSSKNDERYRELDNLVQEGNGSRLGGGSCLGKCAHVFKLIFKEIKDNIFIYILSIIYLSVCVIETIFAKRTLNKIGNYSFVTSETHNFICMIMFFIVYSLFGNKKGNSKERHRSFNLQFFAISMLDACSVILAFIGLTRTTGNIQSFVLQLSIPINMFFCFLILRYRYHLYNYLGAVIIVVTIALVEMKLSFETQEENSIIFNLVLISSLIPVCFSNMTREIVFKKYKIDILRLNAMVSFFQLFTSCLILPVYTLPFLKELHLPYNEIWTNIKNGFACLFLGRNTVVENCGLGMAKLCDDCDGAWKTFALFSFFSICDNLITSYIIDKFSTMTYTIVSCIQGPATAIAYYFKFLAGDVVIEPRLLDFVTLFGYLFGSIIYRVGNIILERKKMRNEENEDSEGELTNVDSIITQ
structure (smiles),measurement,setting,value
NC(=O)CC[C@H](N)C(=O)O [L-glutamine],inhibition at 500 µM,PfCRT^Dd2 [1]; [11],98 ± 2.8%
same,inhibition at 1000 µM,PfCRT^Dd2 [1]; [11],98 ± 3.6%
same,inhibition at 2000 µM,PfCRT^Dd2 [1]; [11],95 ± 5.5%
same,inhibition at 500 µM,PfCRT^Dd2 [1]; [12],100 ± 4.9%
same,inhibition at 1000 µM,PfCRT^Dd2 [1]; [12],100 ± 5.2%
same,inhibition at 500 µM,PfCRT^Dd2 [1]; [13],100 ± 4.9%
same,inhibition at 1000 µM,PfCRT^Dd2 [1]; [13],100 ± 5.2%
same,inhibition at 2000 µM,PfCRT^Dd2 [1]; [13],97 ± 8.3%
same,inhibition at 500 µM,PfCRT^Dd2 [1]; [14],98 ± 2.8%
same,inhibition at 1000 µM,PfCRT^Dd2 [1]; [14],98 ± 3.6%
same,inhibition at 1000 µM,PfCRT^Ecu1110 [2]; [15],95 ± 3.5%
same,inhibition at 2000 µM,PfCRT^Ecu1110 [2]; [15],96 ± 6.2%
same,inhibition at 500 µM,PfCRT^Ecu1110 [2]; [16],32 ± 0.4%
same,inhibition at 1000 µM,PfCRT^Ecu1110 [2]; [16],32 ± 1.4%
same,inhibition at 2000 µM,PfCRT^Ecu1110 [2]; [16],32 ± 1.1%
same,inhibition at 500 µM,PfCRT^Ecu1110 [2]; [17],98 ± 6.9%
same,inhibition at 1000 µM,PfCRT^Ecu1110 [2]; [17],97 ± 6.4%
same,inhibition at 2000 µM,PfCRT^Ecu1110 [2]; [17],99 ± 6.3%
same,inhibition at 500 µM,PfCRT^Ecu1110 [2]; [18],29 ± 1.2%
same,inhibition at 1000 µM,PfCRT^Ecu1110 [2]; [18],29 ± 0.2%
same,inhibition at 2000 µM,PfCRT^Ecu1110 [2]; [18],29 ± 0.1%
same,activity at 5000 µM,"PfCRT^3D7 [3]; PfCRT3D7 oocytes, [test solute]i = 5 mM, total [3H]CQ transport, normalised to the oocyte type control, read-out: Uptake of [3H]CQ (% PfCRT3D7 control), trans-stimulation",99 ± 3.2%
same,"[3H]CQ transport (% PfCRT3D7 control), trans-stimulation, PfCRT3D7",PfCRT^3D7 [3]; SEM,0.3 ± 0.01 % PfCRT3D7 control
same,activity at 5000 µM,"PfCRT^3D7 [3]; [test solute]i = 5 mM (intracellular), PfCRT3D7 oocytes, normalised to oocyte type control, read-out: PfCRT-mediated [3H]CQ transport, trans-stimulation (% PfCRT3D7 control)",97 ± 4.6%
same,activity at 45000 µM,"PfCRT^3D7 [3]; SEM, read-out: Uptake of [3H]CQ (% PfCRTDd2 control), trans-stimulation, PfCRT3D7",3.3 ± 0.04%
same,activity at 45000 µM,"PfCRT^3D7 [3]; read-out: PfCRT-mediated [3H]CQ transport, trans-stimulation (% PfCRT3D7 control)",98 ± 1%
same,activity at 45000 µM,"PfCRT^3D7 [3]; read-out: Uptake of [3H]CQ (% PfCRT3D7 control), trans-stimulation",100 ± 2.7%
same,activity at 5000 µM,"PfCRT^3D7 [3]; total [3H]CQ transport, [test solute]i = 5 mM (intracellular), mean ± SEM, SEM, read-out: Uptake of [3H]CQ (% PfCRTDd2 control), trans-stimulation, PfCRT3D7",3.3 ± 0.01%
same,activity at 5000 µM,"PfNT1; PfNT1 oocytes, [test solute]i = 5 mM, normalised to the oocyte type control, read-out: Uptake of [3H]CQ (% PfNT1 control), trans-stimulation",99 ± 4.2%
same,activity at 45000 µM,"PfNT1; SEM, read-out: Uptake of [3H]CQ (% PfCRTDd2 control), trans-stimulation, PfNT1",2.8 ± 0.02%
same,activity at 45000 µM,"PfNT1; read-out: Uptake of [3H]CQ (% PfNT1 control), trans-stimulation",98 ± 3.1%
same,activity at 5000 µM,"PfNT1; [test solute]i = 5 mM (intracellular), mean ± SEM, SEM, read-out: Uptake of [3H]CQ (% PfCRTDd2 control), trans-stimulation, PfNT1",3.2 ± 0.02%
same,activity at 5000 µM,"PfCRT^Dd2 [4]; pH 5.5, read-out: PfCRT-mediated [3H]CQ transport, trans-stimulation (% PfCRTDd2 control), [test solute]i = 5 mM (intracellular), PfCRTDd2 oocytes, normalised to oocyte type control",99 ± 3.4%
same,activity at 5000 µM,"PfCRT^Dd2 [4]; pH 5.5, read-out: Uptake of [3H]CQ (% PfCRTDd2 control), trans-stimulation, PfCRTDd2, total [3H]CQ transport, [test solute]i = 5 mM (intracellular), mean ± SEM, SEM",101 ± 2.2%
same,activity at 5000 µM,"PfCRT^Dd2 [4]; pH 5.5, read-out: Uptake of [3H]CQ (% PfCRTDd2 control), trans-stimulation, PfCRTDd2 oocytes, [test solute]i = 5 mM, total [3H]CQ transport, normalised to the oocyte type control",101 ± 2.2%
same,activity at 45000 µM,"PfCRT^Dd2 [4]; pH 5.5, read-out: Uptake of [3H]CQ (% PfCRTDd2 control), trans-stimulation, PfCRTDd2 oocytes, total [3H]CQ transport, normalised to the oocyte type control",100 ± 2.4%
same,activity at 5000 µM,"PfCRT^Dd2 [4]; pH 5.5, read-out: [3H]CQ transport (% PfCRTDd2 control), trans-stimulation, PfCRTDd2, trans-stimulation, [test solute]i = 5 mM (injected), PfCRT-mediated component (background subtracted), mean ± SEM, SEM",99 ± 3.4%
same,activity at 45000 µM,"PfCRT^Dd2 [4]; pH 5.5, read-out: [3H]CQ transport (% PfCRTDd2 control), trans-stimulation, PfCRTDd2, trans-stimulation, PfCRT-mediated component (background subtracted), mean ± SEM, SEM",98 ± 3.7%
same,activity at 5000 µM,"PfCRT^Ecu1110 [5]; pH 5.5, read-out: PfCRT-mediated [3H]CQ transport, trans-stimulation (% PfCRTEcu1110 control), [test solute]i = 5 mM (intracellular), PfCRTEcu1110 oocytes, normalised to oocyte type control",97 ± 3.3%
same,activity at 5000 µM,"PfCRT^Ecu1110 [5]; pH 5.5, read-out: Uptake of [3H]CQ (% PfCRTEcu1110 control), trans-stimulation, PfCRTEcu1110 oocytes, [test solute]i = 5 mM, total [3H]CQ transport, normalised to the oocyte type control",99 ± 2.7%
same,activity at 45000 µM,"PfCRT^Ecu1110 [5]; pH 5.5, read-out: Uptake of [3H]CQ (% PfCRTEcu1110 control), trans-stimulation, PfCRTEcu1110 oocytes, [test solute]i = 45 mM (30 mM for some solutes due to solubility), total [3H]CQ transport, normalised to the oocyte type control",99 ± 3.5%
same,activity at 5000 µM,"PfCRT^Ecu1110 [5]; read-out: Uptake of [3H]CQ (% PfCRTDd2 control), trans-stimulation, PfCRTEcu1110, total [3H]CQ transport, [test solute]i = 5 mM (intracellular), mean ± SEM, SEM",35 ± 1.3%
same,activity at 45000 µM,"PfCRT^Ecu1110 [5]; read-out: Uptake of [3H]CQ (% PfCRTDd2 control), trans-stimulation, PfCRTEcu1110, total [3H]CQ transport, [test solute]i = 45 mM (intracellular; 30 mM for some solutes due to solubility), mean ± SEM, SEM",35 ± 2.6%
same,inhibition at 500 µM,PfCRT^3D7 [6]; [19],101 ± 4.8%
same,inhibition at 1000 µM,PfCRT^3D7 [6]; [19],99 ± 3.6%
same,inhibition at 2000 µM,PfCRT^3D7 [6]; [19],99 ± 4.7%
same,inhibition at 500 µM,PfCRT^3D7 [6]; [20],2.6 ± 0.04%
same,inhibition at 1000 µM,PfCRT^3D7 [6]; [20],2.1 ± 0.01%
same,inhibition at 2000 µM,PfCRT^3D7 [6]; [20],2.6 ± 0.04%
same,"Uptake of [3H]CQ (% non-expressing oocyte control), trans-stimulation",non-expressing oocytes [7]; [test solute]i = 5 mM,100 ± 3.2 % non-expressing oocyte control
same,"Uptake of [3H]CQ (% non-expressing oocyte control), trans-stimulation",non-expressing oocytes [7]; [test solute]i = 45 mM (30 mM for some solutes due to solubility),98 ± 2.2 % non-expressing oocyte control
same,"Uptake of [3H]CQ (% PfCRTDd2 control), trans-stimulation, non-expressing oocytes",non-expressing oocytes [7]; [test solute]i = 5 mM (intracellular),2.7 ± 0.07 % PfCRTDd2 control
same,"Uptake of [3H]CQ (% PfCRTDd2 control), trans-stimulation, non-expressing oocytes",non-expressing oocytes [7]; [test solute]i = 45 mM (intracellular; 30 mM for some solutes due to solubility),2.7 ± 0.05 % PfCRTDd2 control
same,inhibition at 500 µM,non-expressing oocytes [8]; [21],3.2 ± 0.07%
same,inhibition at 1000 µM,non-expressing oocytes [8]; [21],2.7 ± 0.05%
same,inhibition at 2000 µM,non-expressing oocytes [8]; [21],2.2 ± 0.03%
same,inhibition at 500 µM,non-expressing oocytes [8]; [22],99 ± 3.2%
same,inhibition at 1000 µM,non-expressing oocytes [8]; [22],100 ± 6.3%
same,inhibition at 2000 µM,non-expressing oocytes [8]; [22],98 ± 3.5%
same,Tested as potential co-substrate but not required for influx of VF-6 via PfCRT into the oocyte,PfCRT [9],X
same,Tested as potential co-substrate but not required for influx of VF-6 via PfCRT into the oocyte,PfCRT [10],X
